Test results as given in article PMC5218480 (PLoS ONE, 2017).

Tested on: MV-4-11 cells
Assay: Gene expression microarray analysis (Affymetrix PrimeView) and GSEA
Format: cell-based, human
Design: RFU PODN (11730768_x_at) / Fold change /veh PODN (11730768_x_at) / RFU LINC00158 (11744669_a_at) / Fold change /veh LINC00158 (11744669_a_at) / RFU DUSP10 (11751237_a_at) / Fold change /veh DUSP10 (11751237_a_at) / RFU ID3 (11757404_x_at) / Fold change /veh ID3 (11757404_x_at) / RFU PLEKHG5 (11737974_s_at) / Fold change /veh PLEKHG5 (11737974_s_at) / RFU LRRC4B (11730491_at) / Fold change /veh LRRC4B (11730491_at) / RFU GIMAP4 (11747438_a_at) / Fold change /veh GIMAP4 (11747438_a_at) / RFU KRT8 (11758183_x_at) / Fold change /veh KRT8 (11758183_x_at) / RFU CNN1 (11734310_a_at) / Fold change /veh CNN1 (11734310_a_at) / RFU VPS37D (11726825_at) / Fold change /veh VPS37D (11726825_at) / RFU C10orf10 (11716522_x_at) / Fold change /veh C10orf10 (11716522_x_at) / RFU KIR2DL2 /// KIR2DL4 /// KIR2DL5A /// KIR2DL5B /// KIR2DS1 /// KIR2DS2 /// KIR2DS3 /// KIR2DS4 /// KIR3DL3 /// KIR3DL3 /// KIR3DS1 (11738374_at) / Fold change /veh KIR2DL2 /// KIR2DL4 /// KIR2DL5A /// KIR2DL5B /// KIR2DS1 /// KIR2DS2 /// KIR2DS3 /// KIR2DS4 /// KIR3DL3 /// KIR3DL3 /// KIR3DS1 (11738374_at) / RFU C1QL1 (11718748_at) / Fold change /veh C1QL1 (11718748_at) / RFU TMPRSS4 (11747572_a_at) / Fold change /veh TMPRSS4 (11747572_a_at) / RFU HAMP (11756126_x_at) / Fold change /veh HAMP (11756126_x_at) / RFU RNFT2 (11725882_a_at) / Fold change /veh RNFT2 (11725882_a_at) / RFU NR4A2 (11747474_a_at) / Fold change /veh NR4A2 (11747474_a_at) / RFU ABCC12 (11746883_a_at) / Fold change /veh ABCC12 (11746883_a_at) / RFU TMEM136 (11760407_x_at) / Fold change /veh TMEM136 (11760407_x_at) / RFU CLDN22 /// WWC2 (11732394_at) / Fold change /veh CLDN22 /// WWC2 (11732394_at) / RFU HLA-DPB1 (11760878_x_at) / Fold change /veh HLA-DPB1 (11760878_x_at) / RFU SPINT1 (11716480_a_at) / Fold change /veh SPINT1 (11716480_a_at) / RFU GAP43 (11754022_s_at) / Fold change /veh GAP43 (11754022_s_at) / RFU A4GNT (11735810_at) / Fold change /veh A4GNT (11735810_at) / RFU PRB3 (11715151_x_at) / Fold change /veh PRB3 (11715151_x_at) / RFU TUBB4B (11761932_at) / Fold change /veh TUBB4B (11761932_at) / RFU CAPN14 (11732068_a_at) / Fold change /veh CAPN14 (11732068_a_at) / RFU TMCC2 (11721928_a_at) / Fold change /veh TMCC2 (11721928_a_at) / RFU IRGQ (11745062_a_at) / Fold change /veh IRGQ (11745062_a_at) / RFU FAM174B (11720279_a_at) / Fold change /veh FAM174B (11720279_a_at) / RFU TMPRSS4 (11748680_a_at) / Fold change /veh TMPRSS4 (11748680_a_at) / RFU FAM212B (11763350_a_at) / Fold change /veh FAM212B (11763350_a_at) / RFU PLEKHG5 (11743358_a_at) / Fold change /veh PLEKHG5 (11743358_a_at) / RFU ZSCAN30 (11745921_a_at) / Fold change /veh ZSCAN30 (11745921_a_at) / RFU CMKLR1 (11741424_a_at) / Fold change /veh CMKLR1 (11741424_a_at) / RFU LOC101060620 /// MAPK8IP1 (11723275_at) / Fold change /veh LOC101060620 /// MAPK8IP1 (11723275_at) / RFU SPTSSB (11747773_x_at) / Fold change /veh SPTSSB (11747773_x_at) / RFU PRSS12 (11739890_at) / Fold change /veh PRSS12 (11739890_at) / RFU BIN1 (11741810_x_at) / Fold change /veh BIN1 (11741810_x_at) / RFU WNT11 (11732464_a_at) / Fold change /veh WNT11 (11732464_a_at) / RFU C10orf10 (11716521_a_at) / Fold change /veh C10orf10 (11716521_a_at) / RFU C5orf56 (11738089_at) / Fold change /veh C5orf56 (11738089_at) / RFU CYB561 (11721691_x_at) / Fold change /veh CYB561 (11721691_x_at) / RFU ANKRD19P (11752326_a_at) / Fold change /veh ANKRD19P (11752326_a_at) / RFU OR2T12 /// OR2T33 /// OR2T8 (11738714_s_at) / Fold change /veh OR2T12 /// OR2T33 /// OR2T8 (11738714_s_at) / RFU VCAN (11748164_a_at) / Fold change /veh VCAN (11748164_a_at) / RFU JSRP1 (11732532_at) / Fold change /veh JSRP1 (11732532_at) / RFU KRTAP10-11 (11738290_x_at) / Fold change /veh KRTAP10-11 (11738290_x_at) / RFU MYO3A (11730013_a_at) / Fold change /veh MYO3A (11730013_a_at) / RFU EBF3 (11725865_a_at) / Fold change /veh EBF3 (11725865_a_at) / RFU CAMK2N1 (11719241_x_at) / Fold change /veh CAMK2N1 (11719241_x_at) / RFU C5orf56 (11738088_a_at) / Fold change /veh C5orf56 (11738088_a_at) / RFU OLFML3 (11715873_a_at) / Fold change /veh OLFML3 (11715873_a_at) / RFU LOC100653217 /// NTM (11731650_a_at) / Fold change /veh LOC100653217 /// NTM (11731650_a_at) / RFU MAPK11 (11762145_a_at) / Fold change /veh MAPK11 (11762145_a_at) / RFU FIZ1 (11724087_x_at) / Fold change /veh FIZ1 (11724087_x_at) / RFU OASL (11726364_x_at) / Fold change /veh OASL (11726364_x_at) / RFU SOX15 (11748057_x_at) / Fold change /veh SOX15 (11748057_x_at) / RFU CD79A (11719716_a_at) / Fold change /veh CD79A (11719716_a_at) / RFU HIST1H1D (11736915_at) / Fold change /veh HIST1H1D (11736915_at) / RFU CASKIN2 (11723855_a_at) / Fold change /veh CASKIN2 (11723855_a_at) / RFU LOC730098 (11760151_x_at) / Fold change /veh LOC730098 (11760151_x_at) / RFU OR4N2 (11742367_at) / Fold change /veh OR4N2 (11742367_at) / RFU PRRT2 (11749266_a_at) / Fold change /veh PRRT2 (11749266_a_at) / RFU SNX32 (11753110_a_at) / Fold change /veh SNX32 (11753110_a_at) / RFU CDHR5 (11726645_a_at) / Fold change /veh CDHR5 (11726645_a_at) / RFU RCAN1 (11760418_a_at) / Fold change /veh RCAN1 (11760418_a_at) / RFU FAM167A (11723789_a_at) / Fold change /veh FAM167A (11723789_a_at) / RFU FAM26E (11764081_at) / Fold change /veh FAM26E (11764081_at) / RFU ISYNA1 (11749810_s_at) / Fold change /veh ISYNA1 (11749810_s_at) / RFU ACY1 (11761880_at) / Fold change /veh ACY1 (11761880_at) / RFU 11764098_at / Fold change /veh 11764098_at / RFU SAMD14 (11745864_x_at) / Fold change /veh SAMD14 (11745864_x_at) / RFU NPB (11741838_a_at) / Fold change /veh NPB (11741838_a_at) / RFU TMPRSS6 (11731388_a_at) / Fold change /veh TMPRSS6 (11731388_a_at) / RFU KRTAP10-2 (11738614_at) / Fold change /veh KRTAP10-2 (11738614_at) / RFU ARHGAP8 /// PRR5-ARHGAP8 (11727945_x_at) / Fold change /veh ARHGAP8 /// PRR5-ARHGAP8 (11727945_x_at) / RFU KRTAP5-7 /// NADSYN1 (11734609_at) / Fold change /veh KRTAP5-7 /// NADSYN1 (11734609_at) / RFU RASL12 (11751679_a_at) / Fold change /veh RASL12 (11751679_a_at) / RFU CDKN2B (11736163_a_at) / Fold change /veh CDKN2B (11736163_a_at) / RFU PRF1 (11729649_at) / Fold change /veh PRF1 (11729649_at) / RFU, ZNF638 /// ZNF638-IT1 / Fold change vs veh, ZNF638 /// ZNF638-IT1 / RFU, PANK3 / Fold change vs veh, PANK3 / RFU, SH3YL1 / Fold change vs veh, SH3YL1 / RFU, ZEB2 / Fold change vs veh, ZEB2 / RFU, NRIP1 / Fold change vs veh, NRIP1 / RFU, PTTG1IP / Fold change vs veh, PTTG1IP / RFU, CAPN2 / Fold change vs veh, CAPN2 / RFU, MED14 / Fold change vs veh, MED14 / RFU, SNORA58 / Fold change vs veh, SNORA58 / RFU, C1orf63 / Fold change vs veh, C1orf63 / RFU, LRRFIP1 / Fold change vs veh, LRRFIP1 / RFU, NDUFAF7 / Fold change vs veh, NDUFAF7 / RFU, SLC12A2 / Fold change vs veh, SLC12A2 / RFU, IBTK / Fold change vs veh, IBTK / RFU, ESF1 / Fold change vs veh, ESF1 / Fold change vs veh, TMEM50B / RFU, TAOK1 / Fold change vs veh, TAOK1 / RFU, ACBD3 / Fold change vs veh, ACBD3 / RFU, TMA16 / Fold change vs veh, TMA16 / RFU, RWDD3 / Fold change vs veh, RWDD3 / RFU, BCAT1 / Fold change vs veh, BCAT1 / RFU, EDEM3 / Fold change vs veh, EDEM3 / RFU, TMEM33 / Fold change vs veh, TMEM33 / RFU, WDR75 / Fold change vs veh, WDR75 / RFU, AHCTF1 / Fold change vs veh, AHCTF1 / RFU, TFRC / Fold change vs veh, TFRC / RFU, ZDHHC17 / Fold change vs veh, ZDHHC17 / RFU, NOM1 / Fold change vs veh, NOM1 / RFU, ARL8B / Fold change vs veh, ARL8B / RFU, ZBTB11 / Fold change vs veh, ZBTB11 / RFU, TAMM41 / Fold change vs veh, TAMM41 / RFU, KIAA1704 /// LOC100996395 / Fold change vs veh, KIAA1704 /// LOC100996395 / RFU, ING1 / Fold change vs veh, ING1 / RFU, TRMT61B / Fold change vs veh, TRMT61B / RFU, FUBP3 / Fold change vs veh, FUBP3 / RFU, TP53 / Fold change vs veh, TP53 / RFU, TNKS2 / Fold change vs veh, TNKS2 / RFU, ZFP14 / Fold change vs veh, ZFP14 / RFU, ACTR2 / Fold change vs veh, ACTR2 / RFU, PPP3R1 / Fold change vs veh, PPP3R1 / RFU, PIK3R1 / Fold change vs veh, PIK3R1 / RFU, HNRNPA1 / Fold change vs veh, HNRNPA1 / RFU, RNF170 / Fold change vs veh, RNF170 / RFU, ZNF28 / Fold change vs veh, ZNF28 / RFU, RNGTT / Fold change vs veh, RNGTT / RFU, OGT / Fold change vs veh, OGT / RFU, BRD1 / Fold change vs veh, BRD1 / RFU, MARS / Fold change vs veh, MARS / RFU, ZNF655 / Fold change vs veh, ZNF655 / RFU, FAHD1 / Fold change vs veh, FAHD1 / RFU, BDP1 / Fold change vs veh, BDP1 / RFU, LRRCC1 / Fold change vs veh, LRRCC1 / RFU, ARID1A / Fold change vs veh, ARID1A / RFU, ZNF146 / Fold change vs veh, ZNF146 / RFU, ZNF330 / Fold change vs veh, ZNF330 / RFU, GPN3 / Fold change vs veh, GPN3 / RFU, C9orf123 / Fold change vs veh, C9orf123 / RFU, N4BP2L2 / Fold change vs veh, N4BP2L2 / RFU, ARFIP1 / Fold change vs veh, ARFIP1 / RFU, FAM179B / Fold change vs veh, FAM179B / RFU, BCL10 / Fold change vs veh, BCL10 / RFU, UHRF1BP1L / Fold change vs veh, UHRF1BP1L / RFU, BET1 / Fold change vs veh, BET1 / RFU, CNOT2 / Fold change vs veh, CNOT2 / RFU, ZNF268 / Fold change vs veh, ZNF268 / Fold change vs veh, ZNF507 / RFU, DGCR2 / Fold change vs veh, DGCR2 / RFU, WDSUB1 / Fold change vs veh, WDSUB1 / Fold change vs veh, HSP90B1 /// MIR3652 / RFU, ADSS / Fold change vs veh, ADSS / RFU, GK / Fold change vs veh, GK / RFU, ZNF148 / Fold change vs veh, ZNF148 / RFU, TAF9 / Fold change vs veh, TAF9 / RFU, SLC1A5 / Fold change vs veh, SLC1A5 / RFU, SLMO2 / Fold change vs veh, SLMO2 / RFU, ABCC4 / Fold change vs veh, ABCC4 / RFU, LOC101060439 /// RAP1B / Fold change vs veh, LOC101060439 /// RAP1B / RFU, RFX7 / Fold change vs veh, RFX7 / RFU, GTPBP10 / Fold change vs veh, GTPBP10 / RFU, CNEP1R1 / Fold change vs veh, CNEP1R1 / RFU, BIVM-ERCC5 /// ERCC5 / Fold change vs veh, BIVM-ERCC5 /// ERCC5 / RFU, ILF3 / Fold change vs veh, ILF3 / RFU 11762660_at / Fold change /veh 11762660_at / RFU VCAN (11757783_s_at) / Fold change /veh VCAN (11757783_s_at) / RFU DDX43 (11728927_at) / Fold change /veh DDX43 (11728927_at) / RFU KRT8 (11758188_x_at) / Fold change /veh KRT8 (11758188_x_at) / RFU NKD1 (11759106_at) / Fold change /veh NKD1 (11759106_at) / RFU SRD5A1 (11742802_a_at) / Fold change /veh SRD5A1 (11742802_a_at) / RFU TPSAB1 /// TPSB2 (11721975_s_at) / Fold change /veh TPSAB1 /// TPSB2 (11721975_s_at) / RFU GSTM3 (11746129_a_at) / Fold change /veh GSTM3 (11746129_a_at) / RFU IL23R (11737362_x_at) / Fold change /veh IL23R (11737362_x_at) / RFU TMEM51 (11727254_a_at) / Fold change /veh TMEM51 (11727254_a_at) / RFU PIWIL2 (11732686_x_at) / Fold change /veh PIWIL2 (11732686_x_at) / RFU ORM1 (11744905_x_at) / Fold change /veh ORM1 (11744905_x_at) / RFU CCDC152 (11743942_at) / Fold change /veh CCDC152 (11743942_at) / RFU ECM1 (11717891_a_at) / Fold change /veh ECM1 (11717891_a_at) / RFU IL23R (11748794_a_at) / Fold change /veh IL23R (11748794_a_at) / RFU TNFAIP8L3 (11732012_x_at) / Fold change /veh TNFAIP8L3 (11732012_x_at) / RFU MBOAT4 (11741988_at) / Fold change /veh MBOAT4 (11741988_at) / RFU 11764193_at / Fold change /veh 11764193_at / RFU TMEM53 (11763286_at) / Fold change /veh TMEM53 (11763286_at) / RFU MAGEB2 (11727129_at) / Fold change /veh MAGEB2 (11727129_at) / RFU TMEM200A (11744735_a_at) / Fold change /veh TMEM200A (11744735_a_at) / RFU CCDC152 (11751479_a_at) / Fold change /veh CCDC152 (11751479_a_at) / RFU FAM211A (11726209_a_at) / Fold change /veh FAM211A (11726209_a_at) / RFU RGS16 (11746705_a_at) / Fold change /veh RGS16 (11746705_a_at) / RFU VCAN (11755009_s_at) / Fold change /veh VCAN (11755009_s_at) / RFU RHOB (11743442_s_at) / Fold change /veh RHOB (11743442_s_at) / RFU RGS16 (11720943_a_at) / Fold change /veh RGS16 (11720943_a_at) / RFU RGS16 (11720944_at) / Fold change /veh RGS16 (11720944_at) / RFU, VPS4B / Fold change vs veh, VPS4B / RFU, CREB1 / Fold change vs veh, CREB1 / RFU, DNAJC13 / Fold change vs veh, DNAJC13 / RFU, GNAQ / Fold change vs veh, GNAQ / RFU, CDK5R1 / Fold change vs veh, CDK5R1 / RFU, ZRANB3 / Fold change vs veh, ZRANB3 / RFU, CUL4A / Fold change vs veh, CUL4A / RFU, CCNY / Fold change vs veh, CCNY / RFU, UFL1 / Fold change vs veh, UFL1 / RFU, COG3 / Fold change vs veh, COG3 / RFU, DIAPH2 / Fold change vs veh, DIAPH2 / RFU, SKA2 / Fold change vs veh, SKA2 / RFU, AFF3 / Fold change vs veh, AFF3 / RFU, LMF1 / Fold change vs veh, LMF1 / RFU, IPO11 / Fold change vs veh, IPO11 / RFU, DFFB / Fold change vs veh, DFFB / RFU, FOXP1 / Fold change vs veh, FOXP1 / RFU, CARD8 / Fold change vs veh, CARD8 / RFU, STRN3 / Fold change vs veh, STRN3 / RFU, ADK / Fold change vs veh, ADK / RFU, RASSF2 / Fold change vs veh, RASSF2 / RFU, WIPF1 / Fold change vs veh, WIPF1 / RFU, LARP1B / Fold change vs veh, LARP1B / RFU, RASA1 / Fold change vs veh, RASA1 / RFU, RB1 / Fold change vs veh, RB1 / RFU, PPFIA1 / Fold change vs veh, PPFIA1 / RFU, MAT2A / Fold change vs veh, MAT2A / RFU, CCT5 / Fold change vs veh, CCT5 / RFU, WDR92 / Fold change vs veh, WDR92 / RFU, CUX1 / Fold change vs veh, CUX1 / RFU, TTC7A / Fold change vs veh, TTC7A / RFU, TMEM135 / Fold change vs veh, TMEM135 / RFU, DEPTOR / Fold change vs veh, DEPTOR / RFU, CPM / Fold change vs veh, CPM / RFU, DNAJB6 / Fold change vs veh, DNAJB6 / RFU, CACNA2D3 / Fold change vs veh, CACNA2D3 / RFU, DTX4 / Fold change vs veh, DTX4 / RFU, TFCP2 / Fold change vs veh, TFCP2 / RFU, GMCL1 /// GMCL1P1 / Fold change vs veh, GMCL1 /// GMCL1P1 / RFU, AEBP2 / Fold change vs veh, AEBP2 / RFU, SNHG1 /// SNORD22 /// SNORD25 /// SNORD26 /// SNORD27 /// SNORD28 /// SNORD29 /// SNORD31 / Fold change vs veh, SNHG1 /// SNORD22 /// SNORD25 /// SNORD26 /// SNORD27 /// SNORD28 /// SNORD29 /// SNORD31 / Fold change (Aza/veh), C12orf56 (ProbeSet 11735607_a_at) / Fold change (ACY-1035/veh), C12orf56 (ProbeSet 11735607_a_at) / Fold change (Aza/veh), FGFR1OP (ProbeSet 11751329_s_at) / Fold change (ACY-1035/veh), FGFR1OP (ProbeSet 11751329_s_at) / Fold change (Aza/veh), VPS36 (ProbeSet 11739960_a_at) / Fold change (ACY-1035/veh), VPS36 (ProbeSet 11739960_a_at) / RFU SYPL1 (11715823_x_at) / Fold change /veh SYPL1 (11715823_x_at) / RFU IGFBP7 (11715501_s_at) / Fold change /veh IGFBP7 (11715501_s_at) / RFU REEP3 (11722064_at) / Fold change /veh REEP3 (11722064_at) / RFU IGLL1 (11728026_x_at) / Fold change /veh IGLL1 (11728026_x_at): dose or concentration left out as unconfirmed
Settings: ProbeSet 11724526_at; LIST B

Nc1ncn([C@@H]2O[C@H](CO)[C@@H](O)[C@H]2O)c(=O)n1 [azacitidine]
RFU, FAHD1: 119.69 RFU
